This note sets out measurements from US20150087673A1, “METHODS FOR USING AND BIOMARKERS FOR AMPK-ACTIVATING COMPOUNDS” (RIGEL PHARMACEUTICALS, INC., priority 2013, published 2015).

pEC50: −log10 of the molar value.

The subject of the experiment is AMPK. In words: AMPK activation assay (enzyme-linked immunosorbent assay). Format: cell-based. The method, then: Compounds were assayed for their ability to activate AMPK using an enzyme-linked immunosorbent assay. Reagents and procedures for measuring AMPK activation are well known and kits for AMPK activation assays are commercially available.
In the case of `COc1ccc(C(=O)C2CCN(C(=O)c3cnc(C(=O)Nc4ccc(Oc5ccc(F)cc5)nc4)cn3)CC2)cc1` [Compound 204, N-(6-(4-fluorophenoxy)pyridin-3-yl)-5-(4-(4-methoxybenzoyl)piperidine-1-carbonyl)pyrazine-2-carboxamide], the pEC50 – broadly, the negative decadic logarithm of the EC50, by convention in mol/L – was over 6.30.
`O=C(NC1CCN(CC2CCCCC2)CC1)c1ccc(C(=O)N2CCN(Cc3ccc(F)cc3)CC2)cn1` [Compound 13, N-(1-(cyclohexylmethyl)piperidin-4-yl)-5-(4-(4-fluorobenzyl)piperazine-1-carbonyl)picolinamide] showed a pEC50 of 5.30 to 6.00.
As to `CC(=O)Nc1ccc(OC2CCN(C(=O)c3ccc(C(=O)NC4CCN(Cc5cccc(OC(F)(F)F)c5)CC4)cn3)CC2)cc1` [Compound 428, 6-(4-(4-acetamidophenoxy)piperidine-1-carbonyl)-N-(1-(3-(trifluoromethoxy)benzyl)piperidin-4-yl)nicotinamide], the pEC50 is 6.00 to 6.30.
For `COc1ccc(OC2CCN(C(=O)c3ccc(C(=O)NC4CCN(Cc5ccc(C#N)cc5)CC4)cn3)CC2)c(NS(C)(=O)=O)c1` [Compound 389, N-(1-(4-cyanobenzyl)piperidin-4-yl)-6-(4-(4-methoxy-2-(methylsulfonamido)phenoxy)piperidine-1-carbonyl)nicotinamide], the pEC50 is 5.30 to 6.00.
In turn, `CS(=O)(=O)Nc1ccc(OC2CCN(C(=O)c3ccc(C(=O)NC4CCN(Cc5ccc(C#N)cc5)CC4)cn3)CC2)cc1` [Compound 367, N-(1-(4-cyanobenzyl)piperidin-4-yl)-6-(4-(4-(methylsulfonamido)phenoxy)piperidine-1-carbonyl)nicotinamide] had a pEC50 of under 5.00.
In turn, `COc1ccc(OC2CCN(C(=O)c3ccc(C(=O)NC4CCN(Cc5ccc(C#N)cc5)CC4)nc3)CC2)cc1` [Compound 143, N-(1-(4-cyanobenzyl)piperidin-4-yl)-5-(4-(4-methoxyphenoxy)piperidine-1-carbonyl)picolinamide] had a pEC50 of over 6.30.
Consider `COc1ccc(C(=O)C2CCN(C(=O)c3ccc(C(=O)NC4CCN(Cc5ccc(F)cc5)CC4)nc3)CC2)cc1` [Compound 178, N-(1-(4-fluorobenzyl)piperidin-4-yl)-5-(4-(4-methoxybenzoyl)piperidine-1-carbonyl)picolinamide], for which the pEC50 was over 6.30.
The result for `O=C(NC1CCN(Cc2ccc(F)cc2)CC1)c1ccc(C(=O)N2CCC(Oc3ccc(F)cc3)CC2)cn1` [Compound 180, N-(1-(4-fluorobenzyl)piperidin-4-yl)-5-(4-(4-fluorophenoxy)piperidine-1-carbonyl)picolinamide] reads over 6.30.
In turn, `CS(=O)(=O)Nc1ccc(CN2CCC(NC(=O)c3ccc(C(=O)N4CCC(C(=O)c5ccc(F)cc5F)CC4)nc3)CC2)cc1` [Compound 216, 6-(4-(2,4-difluorobenzoyl)piperidine-1-carbonyl)-N-(1-(4-(methylsulfonamido)benzyl)piperidin-4-yl)nicotinamide] showed a pEC50 of under 5.00.
As for `N#Cc1ccc(CN2CCC(NC(=O)c3ccc(C(=O)N4CCC(Oc5ccc(N)cc5)CC4)nc3)CC2)cc1` [Compound 364, 6-(4-(4-aminophenoxy)piperidine-1-carbonyl)-N-(1-(4-cyanobenzyl)piperidin-4-yl)nicotinamide], the pEC50 was over 6.30.
Next, `CS(=O)(=O)c1ccc(OC2CCN(C(=O)c3ccc(C(=O)NC4CCN(Cc5cccc(OC(F)(F)F)c5)CC4)nc3)CC2)cc1` [Compound 242, 5-(4-(4-(methylsulfonyl)phenoxy)piperidine-1-carbonyl)-N-(1-(3-(trifluoromethoxy)benzyl)piperidin-4-yl)picolinamide]: over 6.30; `COc1ccc(C(=O)C2CCN(c3ccc(C(=O)NC4CCN(Cc5ccc(C#N)cc5)CC4)nn3)CC2)cc1` [Compound 362, N-(1-(4-cyanobenzyl)piperidin-4-yl)-6-(4-(4-methoxybenzoyl)piperidin-1-yl)pyridazine-3-carboxamide]: over 6.30.
For the molecule `O=C(NC1CCN(Cc2cc(F)cc(F)c2)CC1)c1ccc(C(=O)N2CCN(Cc3ccc(F)cc3)CC2)cn1` [Compound 49, N-(1-(3,5-difluorobenzyl)piperidin-4-yl)-5-(4-(4-fluorobenzyl)piperazine-1-carbonyl)picolinamide], the pEC50 is over 6.30.
The result for `N#Cc1ccc(CN2CCC(NC(=O)c3ncc(C(=O)N4CCN(Cc5ccc(F)cc5)CC4)cc3CCCNC(=O)CCOCCOCCOCCOCCNC(=O)CCCC[C@@H]3SC[C@@H]4NC(=O)N[C@@H]43)CC2)cc1` [Compound 291, N-(1-(4-cyanobenzyl)piperidin-4-yl)-3-(5,21-dioxo-25-((3aS,4S,6aR)-2-oxohexahydro-1H-thieno[3,4-d]imidazol-4-yl)-8,11,14,17-tetraoxa-4,20-diazapentacosyl)-5-(4-(4-fluorobenzyl)piperazine-1-carbonyl)picolinamide] reads over 6.30; that for `O=C(Nc1ccc(Oc2ccc(F)cc2)nc1)c1cnc(C(=O)N2CCC(Oc3ccc(C(F)(F)F)cc3)CC2)cn1` [Compound 205, N-(6-(4-fluorophenoxy)pyridin-3-yl)-5-(4-(4-(trifluoromethyl)phenoxy)piperidine-1-carbonyl)pyrazine-2-carboxamide], over 6.30.
The result for `COc1ccc(C(=O)C2CCN(C(=O)c3ccc(C(=O)NC4CCN(Cc5ccc(NC(C)=O)cc5)CC4)cn3)CC2)cc1` [Compound 401, N-(1-(4-acetamidobenzyl)piperidin-4-yl)-6-(4-(4-methoxybenzoyl)piperidine-1-carbonyl)nicotinamide] reads 5.30 to 6.00; that for `N#Cc1ccc(CN2CCC(NC(=O)c3ccc(N4CCN(Cc5ccccc5)CC4)cn3)CC2)cc1` [Compound 110, 5-(4-benzylpiperazin-1-yl)-N-(1-(4-cyanobenzyl)piperidin-4-yl)picolinamide], 5.30 to 6.00.
Next, `COc1ccc(O[C@H]2CC[C@@H](NC(=O)c3ccc(C(=O)N4CCC(C(=O)c5ccc(OC)cc5)CC4)cn3)CC2)cc1` [Compound 184, 5-(4-(4-methoxybenzoyl)piperidine-1-carbonyl)-N-((cis)-4-(4-methoxyphenoxy)cyclohexyl)picolinamide]: over 6.30.
`COc1ccc(C(=O)C2CCN(C(=O)c3ccc(C(=O)NC4CCN(Cc5ccc(F)cc5)CC4)cn3)CC2)cc1` [Compound 317, N-(1-(4-fluorobenzyl)piperidin-4-yl)-6-(4-(4-methoxybenzoyl)piperidine-1-carbonyl)nicotinamide] had a pEC50 of over 6.30.
`CC(=O)c1ccc(OC2CCN(C(=O)c3ccc(C(=O)NC4CCN(Cc5ccc(C#N)cc5)CC4)cn3)CC2)cc1` [Compound 390, 6-(4-(4-acetylphenoxy)piperidine-1-carbonyl)-N-(1-(4-cyanobenzyl)piperidin-4-yl)nicotinamide]: the negative-log EC50 (pEC50) was over 6.30.
`N#Cc1ccc(O[C@H]2CC[C@@H](NC(=O)c3ccc(C(=O)N4CCC(C(=O)c5ccc(N6CCCC6)cc5)CC4)nc3)CC2)cc1` [Compound 442, N-((cis)-4-(4-cyanophenoxy)cyclohexyl)-6-(4-(4-(pyrrolidin-1-yl)benzoyl)piperidine-1-carbonyl)nicotinamide] had a negative-log EC50 (pEC50) of over 6.30.
The result for `N#Cc1ccc(O[C@H]2CC[C@H](NC(=O)c3ccc(C(=O)N4CCC(Oc5ccc(F)cc5)CC4)cn3)CC2)cc1` [Compound 169, N-((trans)-4-(4-cyanophenoxy)cyclohexyl)-5-(4-(4-fluorophenoxy)piperidine-1-carbonyl)picolinamide] reads 6.00 to 6.30.
With `O=C(NC1CCN(C(=O)C2CCCCC2)CC1)c1ccc(C(=O)N2CCN(Cc3ccc(F)cc3)CC2)cn1` [Compound 7, N-(1-(cyclohexanecarbonyl)piperidin-4-yl)-5-(4-(4-fluorobenzyl)piperazine-1-carbonyl)picolinamide], the pEC50 is over 6.30.
In turn, `COc1ccc(C(=O)C2CCN(C(=O)c3ccc(C(=O)N[C@H]4CC[C@@H](Oc5ccc(C(F)(F)F)cc5)CC4)nc3)CC2)cc1` [Compound 192, 5-(4-(4-methoxybenzoyl)piperidine-1-carbonyl)-N-((cis)-4-(4-(trifluoromethyl)phenoxy)cyclohexyl) picolinamide] showed a pEC50 of over 6.30.
The molecule `N#Cc1ccc(CN2CCC(NC(=O)c3ccc(C(=O)N4CCN(c5ccc(C(=O)C6CC6)cc5)CC4)cn3)CC2)cc1` [Compound 258, N-(1-(4-cyanobenzyl)piperidin-4-yl)-5-(4-(4-(cyclopropanecarbonyl)phenyl)piperazine-1-carbonyl)picolinamide] showed a pEC50 of over 6.30.
As to `CS(=O)(=O)Nc1ccc(CN2CCC(NC(=O)c3ccc(C(=O)N4CCC(Oc5ccc(C#N)cc5)CC4)nc3)CC2)cc1` [Compound 217, 6-(4-(4-cyanophenoxy)piperidine-1-carbonyl)-N-(1-(4-(methylsulfonamido)benzyl)piperidin-4-yl)nicotinamide], the pEC50 was under 5.00.
In the case of `COc1ccc(N2CCC(Nc3ccc(C(=O)NC4CCN(Cc5ccc(C#N)cc5)CC4)nc3)CC2)cc1` [Compound 275, N-(1-(4-cyanobenzyl)piperidin-4-yl)-5-(1-(4-methoxyphenyl)piperidin-4-ylamino)picolinamide], the pEC50 was over 6.30.
As to `CS(=O)(=O)c1ccc(N2CCC(NC(=O)c3ccc(C(=O)N4CCN(Cc5ccc(F)cc5)CC4)nc3)CC2)cc1` [Compound 421, 6-(4-(4-fluorobenzyl)piperazine-1-carbonyl)-N-(1-(4-(methylsulfonyl)phenyl)piperidin-4-yl)nicotinamide], the pEC50 is 5.30 to 6.00.
The molecule `COc1ccc(C(=O)C2CCN(C(=O)c3ccc(C(=O)N[C@H]4CC[C@@H](Oc5ccc(C#N)c(F)c5)CC4)nc3)CC2)cc1` [Compound 198, N-((cis)-4-(4-cyano-3-fluorophenoxy)cyclohexyl)-5-(4-(4-methoxybenzoyl)piperidine-1-carbonyl)picolinamide] gave a pEC50 of over 6.30.
The molecule `CS(=O)(=O)c1ccc(OC2CCN(C(=O)c3ccc(C(=O)NC4CCN(Cc5ccc(C#N)cc5)CC4)nn3)CC2)cc1` [Compound 399, N-(1-(4-cyanobenzyl)piperidin-4-yl)-6-(4-(4-(methylsulfonyl)phenoxy)piperidine-1-carbonyl)pyridazine-3-carboxamide] gave a pEC50 of over 6.30.
